From patent US8772494B2, “N-aryl piperidine substituted biphenylcarboxamides as inhibitors of apolipoprotein b” (Janssen Pharmaceutica N.V., priority 2003, dated 2014)

How the values were obtained:
[1] = test system: ApoB secretion, HepG2 cells; test: Quantification of the secretion of ApoB; assay type: cell-based; details: Homo sapiens, 24 hours of incubation, secreted apoB immunoprecipitated, read-out: pIC50 values (= −log IC50 value) (converted)
Experimental: HepG2 cells were cultured in 24-well plates in MEM Rega 3 containing 10% fetal calf serum. At 70% confluency, the medium was changed and the test compound or carrier (DMSO, 0.4% final concentration) was added. After 24 hours of incubation, the medium was transferred to Eppendorf tubes and cleared by centrifugation. A sheep antibody directed against either apoB was added to the supernatant and the mixture was kept at 8° C. for 24 hours. Then, rabbit anti-sheep antibody was added and the immune complex was allowed to precipitate for 24 hours at 8° C. The immunoprecipitate was pelleted by centrifugation for 25 minutes at 1320 g and washed twice with a buffer containing 40 mM Mops, 40 mM NaH2PO4, 100 mM NaF, 0.2 mM DTT, 5 mM EDTA, 5 mM EGTA, 1% Triton-X-100, 0.5% sodium deoxycholate (DOC), 0.1% SDS, 0.2 μM leupeptin and 0.2 μM PMSF. Radioactivity in the pellet was quantified by liquid scintillation counting.
Resulting IC50 values are enumerated in Table C.1. When the calculated IC50 was below 6, not enough data points were available at the tested concentrations to calculate an IC50 value.

[2] = molecular target: MTP (Homo sapiens, UniProt P55157); test: MTP assay (triglyceride transfer from donor to acceptor vesicles); assay type: biochemical; details: MTP activity, percent triglyceride transfer, 37° C.; read-out: pIC50 values (= −log IC50 value) (converted)
Experimental: MTP activity was measured using an assay similar to one described by J. R. Wetterau and D. B. Zilversmit in Chemistry and Physics of Lipids, 38, 205-222 (1985). To prepare the donor and acceptor vesicles, the appropriate lipids in chloroform were put into a glass test tube and dried under a stream of N2. A buffer containing 15 mM Tris-HCl pH 7.5, 1 mM EDTA, 40 mM NaCl, 0.02% NaN3 (assay buffer) was added to the dried lipid. The mixture was vortexed briefly and the lipids were then allowed to hydrate for 20 min on ice. Vesicles were then prepared by bath sonication (Branson 2200) at room temperature for maximum 15 min. Butylated hydroxytoluene was included in all vesicle preparations at a concentration of 0.1%. The lipid transfer assay mixture contained donor vesicles (40 nmol phosphatidylcholine, 7.5 mol % of cardiolipin and 0.25 mol % glycerol tri [1-^14C]-oleate), acceptor vesicles (240 nmol phosphatidylcholine) and 5 mg BSA in a total volume of 675 μl in a 1.5 ml microcentrifuge tube. Test compounds were added dissolved in DMSO (0.13% final concentration). After 5 minutes of pre-incubation at 37° C., the reaction was started by the addition of MTP in 100 μl dialysis buffer. The reaction was stopped by the addition of 400 μl DEAE-52 cellulose pre-equilibrated in 15 mM Tris-HCl pH 7.5, 1 mM EDTA, 0.02% NaN3 (1:1, vol/vol). The mixture was agitated for 4 min and centrifuged for 2 min at maximum speed in an Eppendorf centrifuge (4° C.) to pellet the DEAE-52-bound donor vesicles. An aliquot of the supernatant containing the acceptor liposomes was counted and the [^14C]-counts were used to calculate the percent triglyceride transfer from donor to acceptor vesicles.
Resulting IC50 values are enumerated in Table C.2. When the calculated IC50 was below 7, not enough data points were available at the tested concentrations to calculate an IC50 value.

Sequence of MTP (P55157 19-894, species assumed): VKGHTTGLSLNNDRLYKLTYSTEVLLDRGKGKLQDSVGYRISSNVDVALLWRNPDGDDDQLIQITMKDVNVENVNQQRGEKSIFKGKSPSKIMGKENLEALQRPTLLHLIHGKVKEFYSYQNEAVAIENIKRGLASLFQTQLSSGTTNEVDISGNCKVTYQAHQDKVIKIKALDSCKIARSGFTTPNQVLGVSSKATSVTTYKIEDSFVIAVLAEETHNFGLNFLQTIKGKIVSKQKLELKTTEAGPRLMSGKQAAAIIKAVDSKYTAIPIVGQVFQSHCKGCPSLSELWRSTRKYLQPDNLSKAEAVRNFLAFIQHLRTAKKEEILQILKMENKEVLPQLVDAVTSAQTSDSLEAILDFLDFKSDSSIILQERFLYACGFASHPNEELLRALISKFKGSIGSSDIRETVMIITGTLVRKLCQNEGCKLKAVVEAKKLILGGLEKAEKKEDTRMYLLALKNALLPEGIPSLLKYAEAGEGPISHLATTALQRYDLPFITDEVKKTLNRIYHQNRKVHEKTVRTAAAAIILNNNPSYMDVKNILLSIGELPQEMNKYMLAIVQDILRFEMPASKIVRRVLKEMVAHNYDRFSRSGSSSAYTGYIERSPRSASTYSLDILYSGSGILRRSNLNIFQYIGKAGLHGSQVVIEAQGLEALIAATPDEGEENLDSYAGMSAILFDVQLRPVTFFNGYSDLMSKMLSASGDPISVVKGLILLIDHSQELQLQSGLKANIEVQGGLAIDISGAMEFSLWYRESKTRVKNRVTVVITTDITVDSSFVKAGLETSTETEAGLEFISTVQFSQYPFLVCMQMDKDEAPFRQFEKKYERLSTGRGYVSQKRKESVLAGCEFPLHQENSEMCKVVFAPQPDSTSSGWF
Sequence of MTP (P07237 18-508 partner, species assumed): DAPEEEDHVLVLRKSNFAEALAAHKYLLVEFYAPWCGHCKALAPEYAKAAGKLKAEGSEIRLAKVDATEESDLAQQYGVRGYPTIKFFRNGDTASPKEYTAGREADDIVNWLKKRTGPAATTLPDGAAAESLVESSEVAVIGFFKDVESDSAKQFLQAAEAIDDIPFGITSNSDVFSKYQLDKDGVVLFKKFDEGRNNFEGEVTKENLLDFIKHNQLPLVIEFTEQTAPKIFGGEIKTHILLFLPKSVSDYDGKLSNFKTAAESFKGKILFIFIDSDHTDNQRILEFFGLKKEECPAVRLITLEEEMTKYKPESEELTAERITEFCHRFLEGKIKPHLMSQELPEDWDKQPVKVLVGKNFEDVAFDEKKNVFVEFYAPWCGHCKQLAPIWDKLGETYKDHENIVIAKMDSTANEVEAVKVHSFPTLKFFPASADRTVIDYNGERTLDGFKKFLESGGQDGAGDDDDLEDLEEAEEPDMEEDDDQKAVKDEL

Compound CCOC(=O)C1CCCCN1C(=O)CC1CCN(c2ccc(NC(=O)c3ccccc3-c3ccc(C(F)(F)F)cc3)cc2)CC1 (stereo not shown) [Compound 1] has an IC50 [1] greater than 1000 nM and an IC50 [2] greater than 100 nM.
With CCOC(=O)C1CCCN(C(=O)CC2CCN(c3ccc(NC(=O)c4ccccc4-c4ccc(C(F)(F)F)cc4)cc3)CC2)C1 (stereo not shown) [Compound 2] the IC50 [1] was 65.3 nM and the IC50 [2] was greater than 1000 nM.
With COC(=O)C(C)NC(=O)CC1CCN(c2ccc(NC(=O)c3ccccc3-c3ccc(C(F)(F)F)cc3)cc2)CC1 (stereo not shown) [Compound 3] the IC50 [1] was 61.4 nM and the IC50 [2] was 7.82 nM.
Compound COC(=O)C(NC(=O)CC1CCN(c2ccc(NC(=O)c3ccccc3-c3ccc(C(F)(F)F)cc3)cc2)CC1)C(C)C (stereo not shown) [Compound 4] has an IC50 [1] of 48.5 nM and an IC50 [2] of 41.3 nM.
For CCOC(=O)C(C)NC(=O)CC1CCN(c2ccc(NC(=O)c3ccccc3-c3ccc(C(F)(F)F)cc3)cc2)CC1 (stereo not shown) [Compound 5], the IC50 [1] was less than 30 nM and the IC50 [2] was 2.06 nM.
With CCOC(=O)C(Cc1c[nH]c2ccccc12)NC(=O)CC1CCN(c2ccc(NC(=O)c3ccccc3-c3ccc(C(F)(F)F)cc3)cc2)CC1 (stereo not shown) [Compound 6] the IC50 [1] was less than 30 nM and the IC50 [2] was 9.31 nM.
With CCOC(=O)C(CCSC)NC(=O)CC1CCN(c2ccc(NC(=O)c3ccccc3-c3ccc(C(F)(F)F)cc3)cc2)CC1 (stereo not shown) [Compound 7] the IC50 [1] was 138 nM and the IC50 [2] was 25.5 nM.
For CCOC(=O)CC(NC(=O)CC1CCN(c2ccc(NC(=O)c3ccccc3-c3ccc(C(F)(F)F)cc3)cc2)CC1)c1ccc2c(c1)OCO2 (stereo not shown) [Compound 8], the IC50 [1] was less than 30 nM and the IC50 [2] was 20.1 nM.
Compound COC(=O)[C@H]1CCCCN1C(=O)CC1CCN(c2ccc(NC(=O)c3ccccc3-c3ccc(C(F)(F)F)cc3)cc2)CC1 [Compound 9] has an IC50 [1] greater than 1000 nM and an IC50 [2] greater than 100 nM.
In the case of COC(=O)[C@@H]1CCCCN1C(=O)CC1CCN(c2ccc(NC(=O)c3ccccc3-c3ccc(C(F)(F)F)cc3)cc2)CC1 [Compound 10], the IC50 [1] was greater than 1000 nM and the IC50 [2] was greater than 100 nM.
In the case of CCOC(=O)[C@H]1CCCN(C(=O)CC2CCN(c3ccc(NC(=O)c4ccccc4-c4ccc(C(F)(F)F)cc4)cc3)CC2)C1 [Compound 11], the IC50 [1] was greater than 1000 nM and the IC50 [2] was greater than 100 nM.
With CCOC(=O)[C@@H]1CCCN(C(=O)CC2CCN(c3ccc(NC(=O)c4ccccc4-c4ccc(C(F)(F)F)cc4)cc3)CC2)C1 [Compound 12] the IC50 [1] was greater than 1000 nM and the IC50 [2] was greater than 100 nM.
With CCOC(=O)[C@H]1CCCN1C(=O)CC1CCN(c2ccc(NC(=O)c3ccccc3-c3ccc(C(F)(F)F)cc3)cc2)CC1 [Compound 13] the IC50 [1] was greater than 1000 nM and the IC50 [2] was greater than 100 nM.
In the case of CCOC(=O)[C@@H]1C[C@@H](O)CN1C(=O)CC1CCN(c2ccc(NC(=O)c3ccccc3-c3ccc(C(F)(F)F)cc3)cc2)CC1 [Compound 14], the IC50 [1] was greater than 1000 nM and the IC50 [2] was greater than 100 nM.
Work on COC(=O)C1C[C@@H](O)CN1C(=O)CC1CCN(c2ccc(NC(=O)c3ccccc3-c3ccc(C(F)(F)F)cc3)cc2)CC1 (stereo partly shown) [Compound 15] yielded an IC50 [1] greater than 1000 nM and an IC50 [2] greater than 100 nM.
COC(=O)[C@@H]1C[C@H](O)CN1C(=O)CC1CCN(c2ccc(NC(=O)c3ccccc3-c3ccc(C(F)(F)F)cc3)cc2)CC1 [Compound 16] gave an IC50 [1] greater than 1000 nM and an IC50 [2] greater than 100 nM.
CCOC(=O)[C@H](C)NC(=O)CC1CCN(c2ccc(NC(=O)c3ccccc3-c3ccc(C(F)(F)F)cc3)cc2)CC1 [Compound 17] was tested, and the IC50 [1] was greater than 1000 nM and the IC50 [2] was 5.6 nM.
For CCOC(=O)[C@@H](C)NC(=O)CC1CCN(c2ccc(NC(=O)c3ccccc3-c3ccc(C(F)(F)F)cc3)cc2)CC1 [Compound 18], the IC50 [1] was less than 30 nM and the IC50 [2] was 3.42 nM.
CCOC(=O)[C@@H](NC(=O)CC1CCN(c2ccc(NC(=O)c3ccccc3-c3ccc(C(F)(F)F)cc3)cc2)CC1)C(C)C [Compound 19] was tested, and the IC50 [1] was 116 nM and the IC50 [2] was greater than 100 nM.
CCOC(=O)[C@H](NC(=O)CC1CCN(c2ccc(NC(=O)c3ccccc3-c3ccc(C(F)(F)F)cc3)cc2)CC1)C(C)C [Compound 20] gave an IC50 [1] of less than 30 nM and an IC50 [2] of 6.37 nM.
For CCOC(=O)[C@H](NC(=O)CC1CCN(c2ccc(NC(=O)c3ccccc3-c3ccc(C(F)(F)F)cc3)cc2)CC1)c1ccccc1 [Compound 21], the IC50 [1] was 121 nM and the IC50 [2] was 3.37 nM.
CCOC(=O)[C@@H](NC(=O)CC1CCN(c2ccc(NC(=O)c3ccccc3-c3ccc(C(F)(F)F)cc3)cc2)CC1)c1ccccc1 [Compound 22] gave an IC50 [1] of 54.8 nM and an IC50 [2] of 8.93 nM.
For CCOC(=O)[C@H](Cc1ccccc1)NC(=O)CC1CCN(c2ccc(NC(=O)c3ccccc3-c3ccc(C(F)(F)F)cc3)cc2)CC1 [Compound 24], the IC50 [1] was 841 nM and the IC50 [2] was 76.7 nM.
CCOC(=O)[C@@H](Cc1ccccc1)NC(=O)CC1CCN(c2ccc(NC(=O)c3ccccc3-c3ccc(C(F)(F)F)cc3)cc2)CC1 [Compound 25] was tested, and the IC50 [1] was greater than 1000 nM.
CCOC(=O)CCNC(=O)CC1CCN(c2ccc(NC(=O)c3ccccc3-c3ccc(C(F)(F)F)cc3)cc2)CC1 [Compound 26] showed an IC50 [1] of 58.6 nM and an IC50 [2] of 8.41 nM.
Compound COC(=O)[C@H](CCN)NC(=O)CC1CCN(c2ccc(NC(=O)c3ccccc3-c3ccc(C(F)(F)F)cc3)cc2)CC1 [Compound 27] has an IC50 [1] of 643 nM and an IC50 [2] greater than 100 nM.
Compound COC(=O)[C@H](CCCN)NC(=O)CC1CCN(c2ccc(NC(=O)c3ccccc3-c3ccc(C(F)(F)F)cc3)cc2)CC1 [Compound 28] has an IC50 [1] greater than 1000 nM and an IC50 [2] greater than 100 nM.
Compound COC(=O)[C@H](CCCCN)NC(=O)CC1CCN(c2ccc(NC(=O)c3ccccc3-c3ccc(C(F)(F)F)cc3)cc2)CC1 [Compound 29] has an IC50 [1] greater than 1000 nM and an IC50 [2] greater than 100 nM.
CCOC(=O)[C@H](CC(C)C)NC(=O)CC1CCN(c2ccc(NC(=O)c3ccccc3-c3ccc(C(F)(F)F)cc3)cc2)CC1 [Compound 30] gave an IC50 [1] of 575 nM and an IC50 [2] of 22 nM.
Compound CCOC(=O)[C@H](Cc1ccc(O)cc1)NC(=O)CC1CCN(c2ccc(NC(=O)c3ccccc3-c3ccc(C(F)(F)F)cc3)cc2)CC1 [Compound 31] has an IC50 [1] greater than 1000 nM and an IC50 [2] of 81.1 nM.
CCOC(=O)[C@@H]1CCCN1C(=O)CC1CCN(c2ccc(NC(=O)c3ccccc3-c3ccc(C(F)(F)F)cc3)cc2)CC1 [Compound 32] gave an IC50 [1] of 406 nM and an IC50 [2] of 31.6 nM.
CCOC(=O)CN(C)C(=O)CC1CCN(c2ccc(NC(=O)c3ccccc3-c3ccc(C(F)(F)F)cc3)cc2)CC1 [Compound 33] was tested, and the IC50 [1] was greater than 1000 nM and the IC50 [2] was 69.5 nM.
With CCOC(=O)CC[C@H](NC(=O)CC1CCN(c2ccc(NC(=O)c3ccccc3-c3ccc(C(F)(F)F)cc3)cc2)CC1)C(=O)OCC [Compound 34] the IC50 [1] was greater than 1000 nM and the IC50 [2] was 12.1 nM.
CCOC(=O)C1CCN(C(=O)CC2CCN(c3ccc(NC(=O)c4ccccc4-c4ccc(C(F)(F)F)cc4)cc3)CC2)CC1 [Compound 35] was tested, and the IC50 [1] was greater than 1000 nM and the IC50 [2] was greater than 100 nM.
CCOC(=O)C[C@H](NC(=O)CC1CCN(c2ccc(NC(=O)c3ccccc3-c3ccc(C(F)(F)F)cc3)cc2)CC1)C(=O)OCC [Compound 36] was tested, and the IC50 [2] was 39.4 nM.
In the case of CCOC(=O)CNC(=O)CC1CCN(c2ccc(NC(=O)c3ccccc3-c3ccc(C(F)(F)F)cc3)cc2)CC1 [Compound 37], the IC50 [1] was 44.8 nM and the IC50 [2] was 5.01 nM.
Work on CCOC(=O)C(C)(C)NC(=O)CC1CCN(c2ccc(NC(=O)c3cccc(C)c3-c3ccc(C(F)(F)F)cc3)cc2)CC1 [Compound 42] yielded an IC50 [1] of 152 nM and an IC50 [2] of 14.9 nM.
COC(=O)CNC(=O)CC1CCN(c2ccc(NC(=O)c3cccc(C)c3-c3ccc(C(F)(F)F)cc3)cc2)CC1 [Compound 43] showed an IC50 [1] of 7.03 nM and an IC50 [2] of 10.4 nM.
Work on CCOC(=O)[C@H](C)NC(=O)CC1CCN(c2ccc(NC(=O)c3cccc(C)c3-c3ccc(C(F)(F)F)cc3)cn2)CC1 [Compound 45] yielded an IC50 [1] of 962 nM.
Compound COC(=O)[C@H](C)NC(=O)CC1CCN(c2ccc(NC(=O)c3cccc(C)c3-c3ccc(C(F)(F)F)cc3)cc2)CC1 [Compound 46] has an IC50 [1] of 218 nM.
CCOC(=O)[C@H](C)NC(=O)CC1CCN(c2ccc(N(C)C(=O)c3ccccc3-c3ccc(C(F)(F)F)cc3)cc2)CC1 [Compound 47] showed an IC50 [1] greater than 1000 nM.
Compound CCOC(=O)[C@H](C)NC(=O)CC1CCN(c2ccc(NC(=O)c3cccc(C)c3-c3ccc(C(F)(F)F)cc3)nc2)CC1 [Compound 48] has an IC50 [1] of 670 nM.
Compound CCOC(=O)[C@H](C)NC(=O)CC1CCN(c2ccc(N(C)C(=O)c3cccc(C)c3-c3ccc(C(F)(F)F)cc3)cn2)CC1 [Compound 50] has an IC50 [2] of 10.4 nM.
